Substitutions are numbered along the chain they refer to.
Experiments:
[1] = biological target: T1, wild-type Androgen Receptor (AR-wt) (Homo sapiens, UniProt P10275); experiment: LNCaP-AR-wt AG: ARE luciferase reporter assay, agonist mode; type: cell-based; details: maximum % stimulation (agonist response), % of 1 μM R-1881 max
T1 construct: expressed in transfected cells; host or cells: LNCaP AR (cs) cells with ARE firefly luciferase lentiviral construct
T1 sequence (P10275 1-920): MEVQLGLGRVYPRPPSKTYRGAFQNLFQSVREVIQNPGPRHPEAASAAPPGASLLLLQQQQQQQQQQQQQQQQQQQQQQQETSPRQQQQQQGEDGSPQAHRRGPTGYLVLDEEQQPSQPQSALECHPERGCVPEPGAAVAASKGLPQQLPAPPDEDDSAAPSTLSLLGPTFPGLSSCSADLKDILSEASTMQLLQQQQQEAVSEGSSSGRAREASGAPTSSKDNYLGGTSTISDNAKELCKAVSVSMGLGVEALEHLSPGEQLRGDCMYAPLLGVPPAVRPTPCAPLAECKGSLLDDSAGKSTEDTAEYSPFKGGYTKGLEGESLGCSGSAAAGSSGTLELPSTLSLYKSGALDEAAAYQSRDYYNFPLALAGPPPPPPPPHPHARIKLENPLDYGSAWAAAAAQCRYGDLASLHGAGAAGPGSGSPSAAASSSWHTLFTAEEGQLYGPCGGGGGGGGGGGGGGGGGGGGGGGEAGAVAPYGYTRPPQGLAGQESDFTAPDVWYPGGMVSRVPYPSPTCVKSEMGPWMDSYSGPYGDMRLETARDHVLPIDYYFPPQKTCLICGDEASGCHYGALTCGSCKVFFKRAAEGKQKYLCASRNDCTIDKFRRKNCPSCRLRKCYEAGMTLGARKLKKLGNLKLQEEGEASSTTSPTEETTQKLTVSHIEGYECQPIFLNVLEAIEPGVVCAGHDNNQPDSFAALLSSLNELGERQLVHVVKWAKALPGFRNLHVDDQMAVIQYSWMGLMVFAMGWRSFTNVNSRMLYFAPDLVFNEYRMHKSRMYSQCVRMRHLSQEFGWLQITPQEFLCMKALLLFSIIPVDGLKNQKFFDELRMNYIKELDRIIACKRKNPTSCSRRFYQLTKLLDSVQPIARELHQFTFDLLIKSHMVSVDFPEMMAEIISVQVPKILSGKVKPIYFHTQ
Protocol: (§1) A stable pooled-population cell line was generated using puromycin (Life Technologies) selection at 1:10,000 v/v. The protocol below was used for both cell lines and for testing of the compounds of Formula (I) of the present invention.
(§2) LNCaP cells were grown to about 80% confluence, media removed and cells rinsed in Hank's balanced salt solution prior to separation from the plate with 0.05% Trypsin EDTA. Cells were lifted and trypsin negated in complete CSS (charcoal stripped serum) culture media. […] Agonist challenge was at 400 pM for WT assay and 600 pM for F876L assay. Plates containing cells and compounds herein were incubated for a further 20-24 hours at 37° C., 5% CO2 before addition of 40 μL/well of Steady-Glo Luciferase Assay System Reagent (Promega# E2520). After 1 h, plates were read for luminescence on a BMG Pherastar.
(§3) EC/IC50 calculations were achieved utilizing calculated RLU data and data fitting macros. Data were fit using least-squares methods to the following formula: […]
(§4) As used herein: pIC50 is defined as—Log10(IC50 expressed in [Molar]). pEC50 is defined as—Log10(EC50 expressed in [Molar]). […] LNCaP-AR-wt ANT refers to the reporter assay using LNCaP cells stably transfected with the Androgen Response Element Firefly Luciferase lentiviral construct and wild-type Androgen Receptor (AR-wt) in Antagonist mode. LNCaP-AR-wt AG refers to the reporter assay using LNCaP cells stably transfected with the Androgen Response Element Firefly Luciferase lentiviral construct and wild-type Androgen Receptor (AR-wt) in Agonist mode. LNCaP-AR-F876L ANT refers to the reporter assay using LNCaP cells stably transfected with the Androgen Response Element Firefly Luciferase lentiviral construct and F876L mutant Androgen Receptor (AR-F876L) in Antagonist mode. LNCaP-AR-F876L AG refers to the reporter assay using LNCaP cells stably transfected with the Androgen Response Element Firefly Luciferase lentiviral construct and F876L mutant Androgen Receptor (AR-F876L) in Agonist mode.

[2] = biological target: T2, F876L mutant Androgen Receptor (AR-F876L) (Homo sapiens, UniProt P10275, F877L); experiment: LNCaP-AR-F876L AG: ARE luciferase reporter assay, agonist mode; type: cell-based; details: maximum % stimulation (agonist response), % of 1 μM R-1881 max
T2 construct: expressed in transfected cells; host or cells: LNCaP F876L cells with ARE firefly luciferase lentiviral construct
T2 sequence (P10275 1-920 F877L): T1 sequence (P10275 1-920) with F877L
Protocol: as §1, §2, §3, §4

N#Cc1ncc(N2C(=O)C3(CCC3)N(c3cccc4ccccc34)C2=S)cc1C(F)(F)F [Cpd 34, 5-[8-(1-naphthyl)-5-oxo-7-thioxo-6,8-diazaspiro[3.4]octan-6-yl]-3-(trifluoromethyl)pyridine-2-carbonitrile]
LNCaP-AR-wt AG MAX % Stim [1]: −0.1%
LNCaP-AR-F876L AG MAX % Stim [2]: 0.2%

Cc1ccc(NC(=O)c2ccc(N3C(=S)N(c4cnc(C#N)c(C)c4)C(=O)C34CCC4)cc2F)cn1 [Cpd 75, 4-[6-(6-cyano-5-methyl-3-pyridyl)-5-oxo-7-thioxo-6,8-diazaspiro[3.4]octan-8-yl]-2-fluoro-N-(6-methyl-3-pyridyl)benzamide]
LNCaP-AR-wt AG MAX % Stim [1]: 0.8%
LNCaP-AR-F876L AG MAX % Stim [2]: 0.8%

Cc1cc(N2C(=O)C3(CCC3)N(c3ccc(C4CCOCC4)cc3)C2=S)cnc1C#N [Cpd 101, 3-methyl-5-[5-oxo-8-(4-tetrahydropyran-4-ylphenyl)-7-thioxo-6,8-diazaspiro[3.4]octan-6-yl]pyridine-2-carbonitrile]
LNCaP-AR-wt AG MAX % Stim [1]: 1.1%
LNCaP-AR-F876L AG MAX % Stim [2]: 1.7%

N#Cc1ncc(N2C(=O)C3(CCC3)N(c3ccc(C(=O)NCCCc4ccccc4)c(F)c3)C2=S)cc1C(F)(F)F [Cpd 57, 4-[6-[6-cyano-5-(trifluoromethyl)-3-pyridyl]-5-oxo-7-thioxo-6,8-diazaspiro[3.4]octan-8-yl]-2-fluoro-N-(3-phenylpropyl)benzamide]
LNCaP-AR-wt AG MAX % Stim [1]: 0.0%
LNCaP-AR-F876L AG MAX % Stim [2]: 0.5%

C#CCNC(=O)c1ccc(N2C(=S)N(c3cnc(C#N)c(C(F)(F)F)c3)C(=O)C23CCC3)cc1F [Cpd 111, 4-[6-[6-cyano-5-(trifluoromethyl)-3-pyridyl]-5-oxo-7-thioxo-6,8-diazaspiro[3.4]octan-8-yl]-2-fluoro-N-prop-2-ynyl-benzamide]
LNCaP-AR-wt AG MAX % Stim [1]: 0.5%
LNCaP-AR-F876L AG MAX % Stim [2]: 2.7%

N#Cc1ncc(N2C(=O)C3(CCC3)N(c3ccc4ccncc4c3)C2=S)cc1C(F)(F)F [Cpd 7, 5-[8-(7-isoquinolyl)-5-oxo-7-thioxo-6,8-diazaspiro[3.4]octan-6-yl]-3-(trifluoromethyl)pyridine-2-carbonitrile]
LNCaP-AR-wt AG MAX % Stim [1]: −0.2%
LNCaP-AR-F876L AG MAX % Stim [2]: 0.0%

N#Cc1ncc(N2C(=O)C3(CCC3)N(c3ccc4ccccc4c3)C2=S)cc1C(F)(F)F [Cpd 18, 5-[8-(2-naphthyl)-5-oxo-7-thioxo-6,8-diazaspiro[3.4]octan-6-yl]-3-(trifluoromethyl)pyridine-2-carbonitrile]
LNCaP-AR-wt AG MAX % Stim [1]: −0.2%
LNCaP-AR-F876L AG MAX % Stim [2]: 0.0%

CC(C)CCNC(=O)c1ccc(N2C(=S)N(c3cnc(C#N)c(C(F)(F)F)c3)C(=O)C23CCC3)cc1F [Cpd 27, 4-[6-[6-cyano-5-(trifluoromethyl)-3-pyridyl]-5-oxo-7-thioxo-6,8-diazaspiro[3.4]octan-8-yl]-2-fluoro-N-isopentyl-benzamide]
LNCaP-AR-wt AG MAX % Stim [1]: 0.4%
LNCaP-AR-F876L AG MAX % Stim [2]: 0.2%

Cc1cc(N2C(=O)C3(CCC3)N(c3ccc(-c4cncnc4)cc3)C2=S)cnc1C#N [Cpd 93, 3-methyl-5-[5-oxo-8-(4-pyrimidin-5-ylphenyl)-7-thioxo-6,8-diazaspiro[3.4]octan-6-yl]pyridine-2-carbonitrile]
LNCaP-AR-wt AG MAX % Stim [1]: 0.9%
LNCaP-AR-F876L AG MAX % Stim [2]: 0.8%

N#Cc1ncc(N2C(=O)C3(CCC3)N(c3ccc(C(=O)NCc4cccnc4)c(F)c3)C2=S)cc1C(F)(F)F [Cpd 67, 4-[6-[6-cyano-5-(trifluoromethyl)-3-pyridyl]-5-oxo-7-thioxo-6,8-diazaspiro[3.4]octan-8-yl]-2-fluoro-N-(3-pyridylmethyl)benzamide]
LNCaP-AR-wt AG MAX % Stim [1]: 1.5%
LNCaP-AR-F876L AG MAX % Stim [2]: 0.8%

N#Cc1ncc(N2C(=O)C3(CCC3)N(c3ccc(C(=O)NCc4cccs4)c(F)c3)C2=S)cc1C(F)(F)F [Cpd 59, 4-[6-[6-cyano-5-(trifluoromethyl)-3-pyridyl]-5-oxo-7-thioxo-6,8-diazaspiro[3.4]octan-8-yl]-2-fluoro-N-(2-thienylmethyl)benzamide]
LNCaP-AR-wt AG MAX % Stim [1]: 1.5%
LNCaP-AR-F876L AG MAX % Stim [2]: 0.7%

— patent US20190209539A1, “THIOHYDANTOIN ANDROGEN RECEPTOR ANTAGONISTS FOR THE TREATMENT OF CANCER” (Janssen Pharmaceutica NV, priority 2016, published 2019)
